Data as given in patent US20250152585A1, “PHARMACEUTICAL COMPOUND” (Duke Street Bio Limited, priority 2022, published 2025).
Where two headings read alike, the source gives them in different places.

Columns and labels:
[1] = target: T1, full length N-terminally FLAG-tagged PARP1 (Homo sapiens, UniProt P09874); assay: PARP1 probe displacement HTRF assay; conditions: for Selectivity: PARP1 over PARP2, ratio Kd (PARP2)/Kd (PARP1), probe displacement HTRF; for Kd: binned Kd, PARP1 probe displacement HTRF
T1 sequence (P09874 whole entry): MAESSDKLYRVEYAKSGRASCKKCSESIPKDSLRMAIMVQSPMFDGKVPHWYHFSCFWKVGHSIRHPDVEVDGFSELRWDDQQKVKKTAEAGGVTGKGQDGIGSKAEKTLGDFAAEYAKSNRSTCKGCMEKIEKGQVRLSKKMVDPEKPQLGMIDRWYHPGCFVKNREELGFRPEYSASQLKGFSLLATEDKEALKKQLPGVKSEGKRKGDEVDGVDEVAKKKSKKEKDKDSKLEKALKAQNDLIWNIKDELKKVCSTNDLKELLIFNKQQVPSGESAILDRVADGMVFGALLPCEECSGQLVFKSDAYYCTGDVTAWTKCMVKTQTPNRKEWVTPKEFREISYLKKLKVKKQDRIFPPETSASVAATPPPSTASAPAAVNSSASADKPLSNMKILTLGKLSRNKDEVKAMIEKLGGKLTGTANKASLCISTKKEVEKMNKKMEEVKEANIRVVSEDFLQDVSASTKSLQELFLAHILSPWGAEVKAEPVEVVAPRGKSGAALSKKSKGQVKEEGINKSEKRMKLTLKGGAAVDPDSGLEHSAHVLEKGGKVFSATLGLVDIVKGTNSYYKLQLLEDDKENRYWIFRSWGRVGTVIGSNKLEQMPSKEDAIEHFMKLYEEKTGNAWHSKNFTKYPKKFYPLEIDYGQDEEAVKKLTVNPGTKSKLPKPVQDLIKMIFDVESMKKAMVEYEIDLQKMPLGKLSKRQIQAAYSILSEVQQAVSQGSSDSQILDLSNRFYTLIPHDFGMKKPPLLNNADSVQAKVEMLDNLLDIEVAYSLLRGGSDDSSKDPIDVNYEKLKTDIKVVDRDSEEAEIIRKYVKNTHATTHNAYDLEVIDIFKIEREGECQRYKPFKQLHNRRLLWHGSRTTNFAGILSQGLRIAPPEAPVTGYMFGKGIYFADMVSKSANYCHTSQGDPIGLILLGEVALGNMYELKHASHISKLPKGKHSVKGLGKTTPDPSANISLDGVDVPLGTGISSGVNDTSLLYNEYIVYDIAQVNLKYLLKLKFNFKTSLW

[2] = target: T1, full length N-terminally FLAG-tagged PARP1; assay: PARP1 biochemical DELFIA assay (auto-PARylation); set-up: recombinant full length human N-terminally FLAG-tagged PARP1; conditions: binned IC50, PARP1 biochemical DELFIA assay
[3] = target: T2, N-terminally FLAG-tagged PARP2 (amino acids 1-583) (Homo sapiens, UniProt Q9UGN5); assay: PARP2 probe displacement HTRF assay; format: binding; conditions: binned Kd, PARP2 probe displacement HTRF
T2 construct: N-terminally FLAG-tagged PARP2 (amino acids 1-583)
T2 sequence (Q9UGN5 whole entry, the tested form may be a part): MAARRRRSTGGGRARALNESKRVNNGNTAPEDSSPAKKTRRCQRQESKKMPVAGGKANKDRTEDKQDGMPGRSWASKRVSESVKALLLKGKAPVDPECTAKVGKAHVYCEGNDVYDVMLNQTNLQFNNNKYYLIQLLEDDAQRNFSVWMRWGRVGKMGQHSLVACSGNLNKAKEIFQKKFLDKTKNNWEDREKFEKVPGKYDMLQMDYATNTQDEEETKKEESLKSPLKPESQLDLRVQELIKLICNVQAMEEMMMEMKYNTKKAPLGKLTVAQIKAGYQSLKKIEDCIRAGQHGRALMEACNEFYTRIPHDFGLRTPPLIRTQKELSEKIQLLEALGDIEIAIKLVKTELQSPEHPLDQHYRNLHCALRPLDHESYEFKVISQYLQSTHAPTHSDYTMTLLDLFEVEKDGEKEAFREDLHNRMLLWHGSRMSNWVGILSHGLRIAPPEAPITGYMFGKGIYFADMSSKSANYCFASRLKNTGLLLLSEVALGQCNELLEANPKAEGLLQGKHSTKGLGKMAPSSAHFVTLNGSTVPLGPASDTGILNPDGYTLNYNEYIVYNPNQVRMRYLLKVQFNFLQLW
Procedure: Data analysis was performed identical as for PARP1.

SMILES | Selectivity [1] | Kd ([1]; read-out: PARP1 HTRF) [nM] | IC50 [2] [nM] | Kd [3] [nM] | Kd ([1]; PARP1 HTRF) [nM]
CNC(=O)c1ccc(N2CCC(N3CCCC(c4nc5c(c(C(F)(F)F)nn5C)c(=O)[nH]4)C3)CC2)cn1 (single isomer, unassigned) [Compound 190a] | + (+ indicates a value of 10 to less than 50) | 100 to 1000 | 100 to 1000 | 1000 to 10000 | –
CNC(=O)c1ccc(N2CCC(N3CCCC(c4nc5c(c(C(F)(F)F)nn5C)c(=O)[nH]4)C3)CC2)cn1 (single isomer, unassigned) [Compound 190b] | ++ (++ indicates a value of 50 to less than 100) | < 10 | < 10 | 10 to 100 | –
CNC(=O)c1ccc(N2CCC(N3CCC(c4cc5[nH]nc(C(F)(F)F)c5c(=O)[nH]4)C3)CC2)cn1 (single isomer, unassigned) [Compound 194a, N-methyl-5-(4-(3-(4-oxo-3-(trifluoromethyl)-4,5-dihydro-1H-pyrazolo[4,3-c]pyridin-6-yl)pyrrolidin-1-yl)piperidin-1-yl)picolinamide] | + (+ indicates a value of 10 to less than 50) | – | 10 to 100 | 1000 to 10000 | 10 to 100
CNC(=O)c1ccc(N2CCC(N3CCC(c4cc5[nH]nc(C(F)(F)F)c5c(=O)[nH]4)C3)CC2)cn1 (single isomer, unassigned) [Compound 194b, N-methyl-5-(4-(3-(4-oxo-3-(trifluoromethyl)-4,5-dihydro-1H-pyrazolo[4,3-c]pyridin-6-yl)pyrrolidin-1-yl)piperidin-1-yl)picolinamide] | + (+ indicates a value of 10 to less than 50) | – | < 10 | 10 to 100 | < 10
CNC(=O)c1ccc(N2CCC(N3CCC(c4cc5ccc(F)cc5c(=O)[nH]4)C3)CC2)c(C)n1 (single isomer, unassigned) [Compound 196b] | +++ (+++ indicate a value of at least 100) | < 10 | < 10 | 1000 to 10000 | –
CNC(=O)c1ccc(N2CCC(N3CCC(c4cc5ccc(F)cc5c(=O)[nH]4)C3)CC2)nn1 (single isomer, unassigned) [Compound 197b] | +++ (+++ indicate a value of at least 100) | 10 to 100 | 10 to 100 | 1000 to 10000 | –
CNC(=O)c1ccc(N2CCC(N3CCCC(c4nc5sc(C)c(C)c5c(=O)[nH]4)C3)CC2)cn1 (single isomer, unassigned) [Compound 199a] | +++ (+++ indicate a value of at least 100) | < 10 | < 10 | 100 to 1000 | –
CNC(=O)c1ccc(N2CCC(N3CCCC(c4nc5sc(C)c(C)c5c(=O)[nH]4)C3)CC2)cn1 (single isomer, unassigned) [Compound 199b] | + (+ indicates a value of 10 to less than 50) | 100 to 1000 | 100 to 1000 | > 10000 | –
CNC(=O)c1ccc(N2CCC(N3CCC(c4ccc(Cl)c(=O)[nH]4)C3)CC2)cn1 (single isomer, unassigned) [Compound 201a] | + (+ indicates a value of 10 to less than 50) | 100 to 1000 | 100 to 1000 | > 10000 | –
CNC(=O)c1ccc(N2CCC(N3CCC(c4ccc(Cl)c(=O)[nH]4)C3)CC2)cn1 (single isomer, unassigned) [Compound 201b] | +++ (+++ indicate a value of at least 100) | < 10 | < 10 | 1000 to 10000 | –
CNC(=O)c1cc(C)c(N2CCC(N3CCC(c4cc5ccc(F)cc5c(=O)[nH]4)C3)CC2)cn1 (single isomer, unassigned) [Compound 202b] | + (+ indicates a value of 10 to less than 50) | < 10 | < 10 | 10 to 100 | –
CNC(=O)c1cc(C)c(N2CCC(N3CCC(c4cc5ccccc5c(=O)[nH]4)C3)CC2)c(C)n1 (single isomer, unassigned) [Compound 205a] | + (+ indicates a value of 10 to less than 50) | 100 to 1000 | 100 to 1000 | > 10000 | –
CNC(=O)c1cc(C)c(N2CCC(N3CCC(c4cc5ccccc5c(=O)[nH]4)C3)CC2)c(C)n1 (single isomer, unassigned) [Compound 205b] | + (+ indicates a value of 10 to less than 50) | 10 to 100 | 10 to 100 | 1000 to 10000 | –
CNC(=O)c1ccc(N2CCC(N3CCC(c4cc5cccc(F)c5c(=O)[nH]4)C3)CC2)c(C)n1 (single isomer, unassigned) [Compound 206a] | +++ (+++ indicate a value of at least 100) | < 10 | < 10 | 100 to 1000 | –
CNC(=O)c1ccc(N2CCC(N3CCC(c4cc5cccc(F)c5c(=O)[nH]4)C3)CC2)c(C)n1 (single isomer, unassigned) [Compound 206b] | +++ (+++ indicate a value of at least 100) | < 10 | < 10 | 1000 to 10000 | –
CNC(=O)c1ccc(N2CCC(N3CCC(c4ccc(COC)c(=O)[nH]4)C3)CC2)cn1 (single isomer, unassigned) [Compound 207a] | +++ (+++ indicate a value of at least 100) | < 10 | < 10 | > 10000 | –
CNC(=O)c1ccc(N2CCC(N3CCC(c4ccc(COC)c(=O)[nH]4)C3)CC2)cn1 (single isomer, unassigned) [Compound 207b] | − (− indicates a value of less than 10) | 100 to 1000 | 100 to 1000 | > 10000 | –
CNC(=O)c1ccc(N2CCC(N3CCC(c4nc5c(c(=O)[nH]4)CCCN5C)C3)CC2)cn1 (single isomer, unassigned) [Compound 208a, N-methyl-5-(4-(3-(8-methyl-4-oxo-3,4,5,6,7,8-hexahydropyrido[2,3-d]pyrimidin-2-yl)pyrrolidin-1-yl)piperidin-1-yl)picolinamide] | + (+ indicates a value of 10 to less than 50) | – | < 10 | 100 to 1000 | 10 to 100
CNC(=O)c1ccc(N2CCC(N3CCC(c4nc5c(c(=O)[nH]4)CCCN5C)C3)CC2)cn1 (single isomer, unassigned) [Compound 208b, N-methyl-5-(4-(3-(8-methyl-4-oxo-3,4,5,6,7,8-hexahydropyrido[2,3-d]pyrimidin-2-yl)pyrrolidin-1-yl)piperidin-1-yl)picolinamide] | ++ (++ indicates a value of 50 to less than 100) | – | < 10 | 10 to 100 | < 10
CNC(=O)c1ccc(N2CCC(N3CCC(c4cc5cccc(F)c5c(=O)[nH]4)C3)CC2)nn1 (single isomer, unassigned) [Compound 209a] | +++ (+++ indicate a value of at least 100) | < 10 | < 10 | 100 to 1000 | –
CNC(=O)c1ccc(N2CCC(N3CCC(c4cc5cccc(F)c5c(=O)[nH]4)C3)CC2)nn1 (single isomer, unassigned) [Compound 209b] | +++ (+++ indicate a value of at least 100) | 10 to 100 | 10 to 100 | 1000 to 10000 | –
CCc1ccc(C2CCN(C3CCN(c4ccc(C(=O)NC)nn4)CC3)C2)[nH]c1=O (single isomer, unassigned) [Compound 210b] | +++ (+++ indicate a value of at least 100) | < 10 | < 10 | 1000 to 10000 | –
CNC(=O)c1ccc(N2CCC(N3CCCC(c4ncc(CC(F)(F)F)c(=O)[nH]4)C3)CC2)cn1 (single isomer, unassigned) [Compound 212a] | + (+ indicates a value of 10 to less than 50) | 100 to 1000 | 100 to 1000 | > 10000 | –
CNC(=O)c1ccc(N2CCC(N3CCCC(c4ncc(CC(F)(F)F)c(=O)[nH]4)C3)CC2)cn1 (single isomer, unassigned) [Compound 212b] | − (− indicates a value of less than 10) | > 10000 | > 10000 | > 10000 | –
CNC(=O)c1ccc(N2CCC(N3CCC(c4ccc(CC5CC5)c(=O)[nH]4)C3)CC2)cn1 (single isomer, unassigned) [Compound 213a] | +++ (+++ indicate a value of at least 100) | 10 to 100 | 10 to 100 | > 10000 | –
CNC(=O)c1ccc(N2CCC(N3CCC(c4ccc(CC5CC5)c(=O)[nH]4)C3)CC2)cn1 (single isomer, unassigned) [Compound 213b] | +++ (+++ indicate a value of at least 100) | < 10 | < 10 | 100 to 1000 | –
CNC(=O)c1ccc(N2CCC(N3CCC(c4nc5c(c(=O)[nH]4)CCCN5)C3)CC2)cn1 (single isomer, unassigned) [Compound 214a] | ++ (++ indicates a value of 50 to less than 100) | 10 to 100 | 10 to 100 | 100 to 1000 | –
CNC(=O)c1ccc(N2CCC(N3CCC(c4nc5c(c(=O)[nH]4)CCCN5)C3)CC2)cn1 (single isomer, unassigned) [Compound 214b] | +++ (+++ indicate a value of at least 100) | < 10 | < 10 | 100 to 1000 | –
CCc1ccc(C2CCN(C3CCN(c4cnc(C(=O)NC)cc4C)CC3)C2)[nH]c1=O (single isomer, unassigned) [Compound 217a] | − (− indicates a value of less than 10) | 100 to 1000 | 100 to 1000 | > 10000 | –
CCc1ccc(C2CCN(C3CCN(c4cnc(C(=O)NC)cc4C)CC3)C2)[nH]c1=O (single isomer, unassigned) [Compound 217b] | ++ (++ indicates a value of 50 to less than 100) | < 10 | < 10 | 100 to 1000 | –
